Laboratory results taken from patent US11000033B2, “Ketone or oxime compound, and herbicide” (NISSAN CHEMICAL CORPORATION, priority 2014, dated 2021).

What was measured:
Assay type in all cases: in vivo
[1] = test system: Echinochloa crus-galli var. crus-galli; experiment: Test Example 3: herbicidal effect by foliage application, Wagner pot (symbol H); settings: application herbicide amount 320 g/ha
Description: (§1) Herbicidal Effect Test by Foliage Application
(§2) After alluvial soil was placed into 1/10000 are of Wagner pot, water was poured and mixed to form a submerged condition having a water depth of 0.1 cm to 0.5 cm. Seeds of Echinochloa crus-galli var. crus-galli, Leptochloa chinensis, Cyperus difformis, and rice were sowed and the pot was placed in the greenhouse of 25° C. to 30° C. to grow the plants. After the plants were grown for 14 days, the emulsion agent of the compound of the present invention prepared in accordance with Formulation Example 2 was diluted with water so as to be a predetermined herbicide amount and the diluted emulsion agent was uniformly applied to a foliage part with a small-size spray. 3 weeks later from the herbicide application, the effect to each plant was investigated in accordance with the criteria of Test Example 1.

[2] = test system: Leptochloa chinensis; experiment: Test Example 3: herbicidal effect by foliage application, Wagner pot (symbol D); settings: application herbicide amount 320 g/ha
Description: as §1, §2

[3] = test system: Cyperus difformis; experiment: Test Example 3: herbicidal effect by foliage application, Wagner pot (symbol E); settings: application herbicide amount 320 g/ha, Table 24
Description: as §1, §2

[4] = test system: directly sowed rice plant; experiment: Test Example 3: effect on crop by foliage application, Wagner pot (symbol b); settings: application herbicide amount 320 g/ha
Description: as §1
After alluvial soil was placed into 1/10000 are of Wagner pot, water was poured and mixed to form a submerged condition having a water depth of 0.1 cm to 0.5 cm. Seeds of Echinochloa crus-galli var. crus-galli, Leptochloa chinensis, Cyperus difformis, and rice were sowed and the pot was placed in the greenhouse of 25° C. to 30° C. to grow the plants.

[5] = test system: Digitaria ciliaris; experiment: Test Example 5: herbicidal effect by foliage application, plastic box (symbol F); settings: 320 g/ha, 3 weeks after application
Description: as §1
(§3) Sterilized diluvial soil was placed in a plastic box having a length of 21 cm, a width of 13 cm, and a depth of 7 cm. Each of the seeds of Digitaria ciliaris, Setaria viridis, Echinochloa crus-galli var. crus-galli, Avena fatua, Alopecurus myosuroides, Lolium multiflorum Lam., Apera spica-venti, Abutilon theophrasti, Amaranthus retroflexus, Chenopodium album, Stellaria media, Galium spurium, Veronica persica, corn, soybean, rice plant, wheat, beet, and rapeseed was sowed in a spot-like manner and was covered with the soil of a thickness of about 1.5 cm. Thereafter, the plants were grown in the greenhouse of 25° C. to 30° C. After the plants were grown for 14 days, the emulsion agent of the compound of the present invention prepared in accordance with Formulation Example 2 was diluted with water so as to be a predetermined herbicide amount and the diluted emulsion agent was uniformly applied to a foliage part with a small-size spray. 3 weeks later from the herbicide application, the effect to each plant was investigated in accordance with the criteria of Test Example 1.

[6] = test system: Setaria viridis; experiment: Test Example 5: herbicidal effect by foliage application, plastic box (symbol G); settings: 320 g/ha, 3 weeks after application
Description: as §1, §3

[7] = test system: Echinochloa crus-galli var. crus-galli; experiment: Test Example 5: herbicidal effect by foliage application, plastic box (symbol H); settings: 320 g/ha, 3 weeks after application
Description: as §1, §3

[8] = test system: Avena fatua; experiment: Test Example 5: herbicidal effect by foliage application, plastic box (symbol I); settings: 320 g/ha, 3 weeks after application
Description: as §1, §3

[9] = test system: Alopecurus myosuroides; experiment: Test Example 5: herbicidal effect by foliage application, plastic box (symbol J); settings: 320 g/ha, 3 weeks after application
Description: as §1, §3

[10] = test system: Lolium multiflorum Lam.; experiment: Test Example 5: herbicidal effect by foliage application, plastic box (symbol K); settings: 320 g/ha, 3 weeks after application
Description: as §1, §3

[11] = test system: Apera spica-venti; experiment: Test Example 5: herbicidal effect by foliage application, plastic box (symbol L); settings: 320 g/ha, 3 weeks after application
Description: as §1, §3

[12] = test system: Abutilon theophrasti; experiment: Test Example 5: herbicidal effect by foliage application, plastic box (symbol M); settings: 320 g/ha, 3 weeks after application
Description: as §1, §3

[13] = test system: Amaranthus retroflexus; experiment: Test Example 5: herbicidal effect by foliage application, plastic box (symbol N); settings: 320 g/ha, 3 weeks after application
Description: as §1, §3

[14] = test system: Chenopodium album; experiment: Test Example 5: herbicidal effect by foliage application, plastic box (symbol O); settings: 320 g/ha, 3 weeks after application
Description: as §1, §3

[15] = test system: Stellaria media; experiment: Test Example 5: herbicidal effect by foliage application, plastic box (symbol P); settings: 320 g/ha, 3 weeks after application
Description: as §1, §3

[16] = test system: Galium spurium; experiment: Test Example 5: herbicidal effect by foliage application, plastic box (symbol Q); settings: 320 g/ha, 3 weeks after application
Description: as §1, §3

[17] = test system: Veronica persica; experiment: Test Example 5: herbicidal effect by foliage application, plastic box (symbol R); settings: 320 g/ha, 3 weeks after application
Description: as §1, §3

[18] = test system: corn; experiment: Test Example 5: effect on crop by foliage application, plastic box (symbol c); settings: 320 g/ha, 3 weeks after application
Description: as §1
(§4) Sterilized diluvial soil was placed in a plastic box having a length of 21 cm, a width of 13 cm, and a depth of 7 cm. Each of the seeds of Digitaria ciliaris, Setaria viridis, Echinochloa crus-galli var. crus-galli, Avena fatua, Alopecurus myosuroides, Lolium multiflorum Lam., Apera spica-venti, Abutilon theophrasti, Amaranthus retroflexus, Chenopodium album, Stellaria media, Galium spurium, Veronica persica, corn, soybean, rice plant, wheat, beet, and rapeseed was sowed in a spot-like manner and was covered with the soil of a thickness of about 1.5 cm. Thereafter, the plants were grown in the greenhouse of 25° C. to 30° C.

[19] = test system: soybean; experiment: Test Example 5: effect on crop by foliage application, plastic box (symbol d); settings: 320 g/ha, 3 weeks after application
Description: as §1, §4

[20] = test system: rice plant; experiment: Test Example 5: effect on crop by foliage application, plastic box (symbol b); settings: 320 g/ha, 3 weeks after application
Description: as §1, §4

[21] = test system: wheat; experiment: Test Example 5: effect on crop by foliage application, plastic box (symbol e); settings: 320 g/ha, 3 weeks after application
Description: as §1, §4

[22] = test system: beet; experiment: Test Example 5: effect on crop by foliage application, plastic box (symbol f); settings: 320 g/ha, 3 weeks after application
Description: as §1, §4

[23] = test system: rapeseed; experiment: Test Example 5: effect on crop by foliage application, plastic box (symbol g); settings: 320 g/ha, 3 weeks after application
Description: as §1, §4

## CCOC(=O)C(C(=O)C(C)C)C1CC(O)=C(c2c(C)cc(Br)cc2C)C1=O (mixture of isomers) [10-001]
[1]; Table 24
  H (Echinochloa crus-galli var. crus-galli) herbicidal effect grade: 5 (Herbicidal ratio of 90% or more (almost completely withered))
[2]; Table 24
  D (Leptochloa chinensis) herbicidal effect grade: 4 (Herbicidal ratio of 70% or higher and lower than 90%)
[3]
  E herbicidal effect grade: 0 (Herbicidal ratio of 5% or lower (almost no effect))
[4]; Table 24
  b (directly sowed rice plant) effect on crop grade: 3 (Herbicidal ratio of 40% or higher and lower than 70%)
[5]
  F: Digitaria ciliaris, herbicidal effect grade: 3 (Herbicidal ratio of 40% or higher and lower than 70%)
[6]
  G: Setaria viridis, herbicidal effect grade: 2 (Herbicidal ratio of 20% or higher and lower than 40%)
[7]
  H: Echinochloa crus-galli var. crus-galli, herbicidal effect grade: 4 (Herbicidal ratio of 70% or higher and lower than 90%)
[8]
  I: Avena fatua, herbicidal effect grade: 1 (Herbicidal ratio of 5% or higher and lower than 20%)
[9]
  J: Alopecurus myosuroides, herbicidal effect grade: 1 (Herbicidal ratio of 5% or higher and lower than 20%)
[10]
  K: Lolium multiflorum Lam., herbicidal effect grade: 3 (Herbicidal ratio of 40% or higher and lower than 70%)
[11]
  L: Apera spica-venti, herbicidal effect grade: 0 (Herbicidal ratio of 5% or lower (almost no effect))
[12]
  M: Abutilon theophrasti, herbicidal effect grade: 0 (Herbicidal ratio of 5% or lower (almost no effect))
[13]
  N: Amaranthus retroflexus, herbicidal effect grade: 0 (Herbicidal ratio of 5% or lower (almost no effect))
[14]
  O: Chenopodium album, herbicidal effect grade: 0 (Herbicidal ratio of 5% or lower (almost no effect))
[15]
  P: Stellaria media, herbicidal effect grade: 0 (Herbicidal ratio of 5% or lower (almost no effect))
[16]
  Q: Galium spurium, herbicidal effect grade: 0 (Herbicidal ratio of 5% or lower (almost no effect))
[17]
  R: Veronica persica, herbicidal effect grade: 0 (Herbicidal ratio of 5% or lower (almost no effect))
[18]
  c: corn, effect on crop grade: 1 (Herbicidal ratio of 5% or higher and lower than 20%)
[19]
  d: soybean, effect on crop grade: 0 (Herbicidal ratio of 5% or lower (almost no effect))
[20]
  b: directly sowed rice plant, effect on crop grade: 2 (Herbicidal ratio of 20% or higher and lower than 40%)
[21]
  e: wheat, effect on crop grade: 0 (Herbicidal ratio of 5% or lower (almost no effect))
[22]
  f: beet, effect on crop grade: 0 (Herbicidal ratio of 5% or lower (almost no effect))
[23]
  g: rapeseed, effect on crop grade: 0 (Herbicidal ratio of 5% or lower (almost no effect))

## CON=C(C)CC1CC(OC(=O)N(c2ccccc2)C(C)C)=C(c2c(C)cc(C)cc2C)C1=O (stereo not shown) [1-127]
[5]
  F: Digitaria ciliaris, herbicidal effect (criteria 0-5): 0 (Herbicidal ratio of 5% or lower (almost no effect))
[6]
  G: Setaria viridis, herbicidal effect (criteria 0-5): 0 (Herbicidal ratio of 5% or lower (almost no effect))
[7]
  H: Echinochloa crus-galli var. crus-galli, herbicidal effect (criteria 0-5): 0 (Herbicidal ratio of 5% or lower (almost no effect))
[8]
  I: Avena fatua, herbicidal effect (criteria 0-5): 0 (Herbicidal ratio of 5% or lower (almost no effect))
[9]
  J: Alopecurus myosuroides, herbicidal effect (criteria 0-5): 1 (Herbicidal ratio of 5% or higher and lower than 20%)
[10]
  K: Lolium multiflorum Lam., herbicidal effect (criteria 0-5): 1 (Herbicidal ratio of 5% or higher and lower than 20%)
[11]
  L: Apera spica-venti, herbicidal effect (criteria 0-5): 0 (Herbicidal ratio of 5% or lower (almost no effect))
[12]
  M: Abutilon theophrasti, herbicidal effect (criteria 0-5): 0 (Herbicidal ratio of 5% or lower (almost no effect))
[13]
  N: Amaranthus retroflexus, herbicidal effect (criteria 0-5): 0 (Herbicidal ratio of 5% or lower (almost no effect))
[14]
  O: Chenopodium album, herbicidal effect (criteria 0-5): 0 (Herbicidal ratio of 5% or lower (almost no effect))
[15]
  P: Stellaria media, herbicidal effect (criteria 0-5): 0 (Herbicidal ratio of 5% or lower (almost no effect))
[16]
  Q: Galium spurium, herbicidal effect (criteria 0-5): 0 (Herbicidal ratio of 5% or lower (almost no effect))
[17]
  R: Veronica persica, herbicidal effect (criteria 0-5): 0 (Herbicidal ratio of 5% or lower (almost no effect))
[18]
  c: corn, effect on crop (criteria 0-5): 0 (Herbicidal ratio of 5% or lower (almost no effect))
[19]
  d: soybean, effect on crop (criteria 0-5): 0 (Herbicidal ratio of 5% or lower (almost no effect))
[20]
  b: directly sowed rice plant, effect on crop (criteria 0-5): 0 (Herbicidal ratio of 5% or lower (almost no effect))
[21]
  e: wheat, effect on crop (criteria 0-5): 0 (Herbicidal ratio of 5% or lower (almost no effect))
[22]
  f: beet, effect on crop (criteria 0-5): 0 (Herbicidal ratio of 5% or lower (almost no effect))
[23]
  g: rapeseed, effect on crop (criteria 0-5): 0 (Herbicidal ratio of 5% or lower (almost no effect))

## CON=C(C)CC1CC(O)=C(c2c(C)cc(-c3ccncc3)cc2C)C1=O (stereo not shown) [6-105]
[1]
  herbicidal effect on H (Echinochloa crus-galli var. crus-galli), grade 0-5: 3 (Herbicidal ratio of 40% or higher and lower than 70%)
[2]
  herbicidal effect on D (Leptochloa chinensis), grade 0-5: 4 (Herbicidal ratio of 70% or higher and lower than 90%)
[4]
  effect on crop b (directly sowed rice plant), grade 0-5: 4 (Herbicidal ratio of 70% or higher and lower than 90%)
[5]
  F: Digitaria ciliaris, herbicidal effect (criteria of Test Example 1): 5 (Herbicidal ratio of 90% or more (almost completely withered))
[6]
  G: Setaria viridis, herbicidal effect (criteria of Test Example 1): 5 (Herbicidal ratio of 90% or more (almost completely withered))
[7]
  H: Echinochloa crus-galli var. crus-galli, herbicidal effect (criteria of Test Example 1): 5 (Herbicidal ratio of 90% or more (almost completely withered))
[8]
  I: Avena fatua, herbicidal effect (criteria of Test Example 1): 2 (Herbicidal ratio of 20% or higher and lower than 40%)
[9]
  J: Alopecurus myosuroides, herbicidal effect (criteria of Test Example 1): 2 (Herbicidal ratio of 20% or higher and lower than 40%)
[10]
  K: Lolium multiflorum Lam., herbicidal effect (criteria of Test Example 1): 4 (Herbicidal ratio of 70% or higher and lower than 90%)
[11]
  L: Apera spica-venti, herbicidal effect (criteria of Test Example 1): 2 (Herbicidal ratio of 20% or higher and lower than 40%)
[12]
  M: Abutilon theophrasti, herbicidal effect (criteria of Test Example 1): 0 (Herbicidal ratio of 5% or lower (almost no effect))
[13]
  N: Amaranthus retroflexus, herbicidal effect (criteria of Test Example 1): 0 (Herbicidal ratio of 5% or lower (almost no effect))
[14]
  O: Chenopodium album, herbicidal effect (criteria of Test Example 1): 0 (Herbicidal ratio of 5% or lower (almost no effect))
[15]
  P: Stellaria media, herbicidal effect (criteria of Test Example 1): 0 (Herbicidal ratio of 5% or lower (almost no effect))
[16]
  Q: Galium spurium, herbicidal effect (criteria of Test Example 1): 3 (Herbicidal ratio of 40% or higher and lower than 70%)
[17]
  R: Veronica persica, herbicidal effect (criteria of Test Example 1): 3 (Herbicidal ratio of 40% or higher and lower than 70%)
[18]
  c: corn, effect on crop (criteria of Test Example 1): 3 (Herbicidal ratio of 40% or higher and lower than 70%)
[19]
  d: soybean, effect on crop (criteria of Test Example 1): 0 (Herbicidal ratio of 5% or lower (almost no effect))
[20]
  b: directly sowed rice plant, effect on crop (criteria of Test Example 1): 3 (Herbicidal ratio of 40% or higher and lower than 70%)
[21]
  e: wheat, effect on crop (criteria of Test Example 1): 0 (Herbicidal ratio of 5% or lower (almost no effect))
[22]
  f: beet, effect on crop (criteria of Test Example 1): 0 (Herbicidal ratio of 5% or lower (almost no effect))
[23]
  g: rapeseed, effect on crop (criteria of Test Example 1): 4 (Herbicidal ratio of 70% or higher and lower than 90%)
